Results taken from patent US20070043008A1, “Condensed Bicyclo[3.1.0] Hex-4-EN Derivatives Useful as Antibacterial Agents” (priority 2003, published 2007).
In brackets after ≈: the same amount, converted by molar mass. Read-outs that look alike come from different tables or passages of the source.

Experiments:
Assay type in all cases: cell-based
Pseudomonas aeruginosa = experiment: MIC/MBC broth dilution, Pseudomonas aeruginosa patient isolates
Procedure: (§1) The Minimal inhibitory concentration (MIC) and the Minimal bactericidal concentration (MBC) have been tested against various bacteria including patient isolates and antibiotic resistant strains such as S. aureus ATCC 25923, E. coli ATCC 25922, P. aeruginosa ATCC 27853.
(§2) The bacteria were streaked on a nutrient agar plate to obtain a freshly isolated colony subsequently incubated overnight at 37° C. 4-5 isolated colonies were added into Mueller Hinton broth (MHB) solution, incubated for 4 hrs at 37° C. The turbidity was adjusted to the McFarland tube and the solution was diluted with MHB to 1:200.
(§3) The test solution was diluted with dimethyl sulfoxide (DMSO) and MHB in the ratio of 1:4 to get a final concentration of 512 μg/ml. 50 μl of MHB were added to each of twelve wells except the first well. Dilutions were made, mixed and the solutions were then incubated overnight at 37° C.
(§4) In order to determine the MBC, a loopful of each clear well was streaked onto a nutrient containing agar plate, which was subsequently incubated overnight at 37° C. The MBC was then determined as the lowest concentration which has shown no visible colony for each chemical.

Staphylococcus aureus = experiment: MIC/MBC broth dilution, Staphylococcus aureus patient isolates
Procedure: as §1, §2, §3, §4

Klebsiella pneumoniae = experiment: MIC/MBC broth dilution, Klebsiella pneumoniae patient isolates
Procedure: as §1, §2, §3, §4

Acinetobacter spp. = experiment: MIC/MBC broth dilution, Acinetobacter spp. patient isolates
Procedure: as §1, §2, §3, §4

S. aureus ATCC 25923 = experiment: MIC/MBC broth dilution, S. aureus ATCC 25923; conditions: Staphylococcus aureus, ATCC25923; S. aureus ATCC 25923, resistant strain (footnote 3)
Procedure: as §1, §2, §3, §4

P. aeruginosa ATCC 27853 = experiment: MIC/MBC broth dilution, P. aeruginosa ATCC 27853; conditions: Pseudomonas aeruginosa, ATCC27853; P. aeruginosa ATCC 27853, resistant strain (footnote 3)
Procedure: as §1, §2, §3, §4

E. coli ATCC 25922 = experiment: MIC/MBC broth dilution, E. coli ATCC 25922; conditions: Escherichia coli, ATCC25922; E. coli ATCC 25922, resistant strain (footnote 3)
Procedure: as §1, §2, §3, §4

Escherichia coli = experiment: MIC/MBC broth dilution, Escherichia coli patient isolates
Procedure: as §1, §2, §3, §4

Enterobacter spp. = experiment: MIC/MBC broth dilution, Enterobacter spp. patient isolates
Procedure: as §1, §2, §3, §4

[1] = test system: various bacteria including patient isolates and antibiotic resistant strains; experiment: Antibacterial evaluation across all bacteria tested (summary of MIC/MBC)
Procedure: as §1, §2
The test solution was diluted with dimethyl sulfoxide (DMSO) and MHB in the ratio of 1:4 to get a final concentration of 512 μg/ml. 50 μl of MHB were added to each of twelve wells except the first well. […]
as §4
The first step in the evaluation was to determine the zone of inhibition on agar plates comparing the Example compounds with ampicillin and chloramphenicol as standards. Following this initial screening, the MIC/MBC was determined as previously described and the results are outlined in Table 1 for selected examples.

[2] = patient isolates, isolate code not given (one value per isolate)
[3] = Acinetobacter, patient isolates, isolate code not given (one value per isolate), read-out: MIC
[4] = Enterobacter, patient isolates, isolate code not given (one value per isolate)
[5] = Enterobacter, patient isolate En1

O=C1OC2NC2=C1Cl (stereo not drawn) [Example 3, 4-chloro-2-oxa-6-azabicyclo[3.1.0]hex-4-en-3-one]
MBC (Pseudomonas aeruginosa; [2]): 128 µg/mL (≈ 973 µM) | MIC (Pseudomonas aeruginosa; [2]): 128 µg/mL (≈ 973 µM) | MBC (Staphylococcus aureus; [2]): > 128 µg/mL | MIC (Staphylococcus aureus; [2]): 128 µg/mL (≈ 973 µM) | MBC (Klebsiella pneumoniae; [2]): 64 µg/mL (≈ 487 µM) | MIC (Klebsiella pneumoniae; [2]): 64 µg/mL (≈ 487 µM) | MIC (Acinetobacter spp.; [3]): 32 µg/mL (≈ 243 µM) | MBC (S. aureus ATCC 25923): > 128 µg/mL | MIC (S. aureus ATCC 25923): 128 µg/mL (≈ 973 µM) | MBC (P. aeruginosa ATCC 27853): 128 µg/mL (≈ 973 µM) | MIC (P. aeruginosa ATCC 27853): 128 µg/mL (≈ 973 µM) | MBC (E. coli ATCC 25922): 128 µg/mL (≈ 973 µM) | MIC (E. coli ATCC 25922): 128 µg/mL (≈ 973 µM) | MBC (Escherichia coli; [2]): 128 µg/mL (≈ 973 µM) | MIC (Escherichia coli; [2]): 64 µg/mL (≈ 487 µM) | MBC (Enterobacter spp.; [4]): 64 µg/mL (≈ 487 µM) | MIC (Enterobacter spp.; [4]): 64 µg/mL (≈ 487 µM)

CN1C2=C(Cl)C(=O)OC21 (stereo not drawn) [Example 1, 4-chloro-6-methyl-2-oxa-6-azabicyclo[3.1.0]hex-4-en-3-one]
MBC (Pseudomonas aeruginosa; patient isolate P7): 64 µg/mL (≈ 440 µM) | MIC (Pseudomonas aeruginosa; patient isolate P7): 32 µg/mL (≈ 220 µM) | MBC (Pseudomonas aeruginosa; patient isolate P10): 64 µg/mL (≈ 440 µM) | MIC (Pseudomonas aeruginosa; patient isolate P10): 64 µg/mL (≈ 440 µM) | MBC (Pseudomonas aeruginosa; patient isolate P12): 128 µg/mL (≈ 879 µM) | MIC (Pseudomonas aeruginosa; patient isolate P12): 128 µg/mL (≈ 879 µM) | MBC (Pseudomonas aeruginosa; patient isolate P13): 64 µg/mL (≈ 440 µM) | MIC (Pseudomonas aeruginosa; patient isolate P13): 32 µg/mL (≈ 220 µM) | MBC (Pseudomonas aeruginosa; patient isolate P14): 64 µg/mL (≈ 440 µM) | MIC (Pseudomonas aeruginosa; patient isolate P14): 32 µg/mL (≈ 220 µM) | MBC (Pseudomonas aeruginosa; patient isolate P16): 64 µg/mL (≈ 440 µM) | MIC (Pseudomonas aeruginosa; patient isolate P16): 32 µg/mL (≈ 220 µM) | MBC (Staphylococcus aureus; patient isolate S1): > 128 µg/mL | MIC (Staphylococcus aureus; patient isolate S1): 128 µg/mL (≈ 879 µM) | MBC (Staphylococcus aureus; patient isolate S2): > 128 µg/mL | MIC (Staphylococcus aureus; patient isolate S2): 128 µg/mL (≈ 879 µM) | MBC (Staphylococcus aureus; patient isolate S3): 128 µg/mL (≈ 879 µM) | MIC (Staphylococcus aureus; patient isolate S3): 64 µg/mL (≈ 440 µM) | MBC (Staphylococcus aureus; patient isolate S4): > 128 µg/mL | MIC (Staphylococcus aureus; patient isolate S4): 64 µg/mL (≈ 440 µM) | MBC (Klebsiella pneumoniae; patient isolate K1): 64 µg/mL (≈ 440 µM) | MIC (Klebsiella pneumoniae; patient isolate K1): 64 µg/mL (≈ 440 µM) | MBC (Klebsiella pneumoniae; patient isolate K2): 64 µg/mL (≈ 440 µM) | MIC (Klebsiella pneumoniae; patient isolate K2): 32 µg/mL (≈ 220 µM) | MBC (Klebsiella pneumoniae; patient isolate K3): 32 µg/mL (≈ 220 µM) | MIC (Klebsiella pneumoniae; patient isolate K3): 32 µg/mL (≈ 220 µM) | MBC (Klebsiella pneumoniae; patient isolate K4): 128 µg/mL (≈ 879 µM) | MIC (Klebsiella pneumoniae; patient isolate K4): 128 µg/mL (≈ 879 µM) | MBC (Klebsiella pneumoniae; patient isolate K5): 64 µg/mL (≈ 440 µM) | MIC (Klebsiella pneumoniae; patient isolate K5): 64 µg/mL (≈ 440 µM) | MBC (Acinetobacter spp.; Acinetobacter, patient isolate A1, read-out: MBC): 16 µg/mL (≈ 110 µM) | MIC (Acinetobacter spp.; Acinetobacter, patient isolate A1, read-out: MIC): 8 µg/mL (≈ 55 µM) | MBC (Acinetobacter spp.; Acinetobacter, patient isolate A2, read-out: MBC): 64 µg/mL (≈ 440 µM) | MIC (Acinetobacter spp.; Acinetobacter, patient isolate A2, read-out: MIC): 64 µg/mL (≈ 440 µM) | MBC (Acinetobacter spp.; Acinetobacter, patient isolate A3, read-out: MBC): 32 µg/mL (≈ 220 µM) | MIC (Acinetobacter spp.; Acinetobacter, patient isolate A3, read-out: MIC): 16 µg/mL (≈ 110 µM) | MBC (Acinetobacter spp.; Acinetobacter, patient isolate A4, read-out: MBC): 64 µg/mL (≈ 440 µM) | MIC (Acinetobacter spp.; Acinetobacter, patient isolate A4, read-out: MIC): 64 µg/mL (≈ 440 µM) | MBC (Acinetobacter spp.; Acinetobacter, patient isolate A5, read-out: MBC): 32 µg/mL (≈ 220 µM) | MIC (Acinetobacter spp.; Acinetobacter, patient isolate A5, read-out: MIC): 32 µg/mL (≈ 220 µM) | MBC (S. aureus ATCC 25923): 64 µg/mL (≈ 440 µM) | MIC (S. aureus ATCC 25923): 16 µg/mL (≈ 110 µM) | MBC (P. aeruginosa ATCC 27853): 32 µg/mL (≈ 220 µM) | MIC (P. aeruginosa ATCC 27853): 32 µg/mL (≈ 220 µM) | MIC for antibiotic resistant strains compared with corresponding non-resistant isolates ([1]; resistant ATCC strains vs patient isolates): lower MIC for the antibiotic resistant strains than the corresponding non-resistant isolates | MBC (E. coli ATCC 25922): 32 µg/mL (≈ 220 µM) | MIC (E. coli ATCC 25922): 16 µg/mL (≈ 110 µM) | MBC (Escherichia coli; patient isolate E1): 32 µg/mL (≈ 220 µM) | MIC (Escherichia coli; patient isolate E1): 32 µg/mL (≈ 220 µM) | MBC (Escherichia coli; patient isolate E2): 64 µg/mL (≈ 440 µM) | MIC (Escherichia coli; patient isolate E2): 64 µg/mL (≈ 440 µM) | MBC (Escherichia coli; patient isolate E3): 64 µg/mL (≈ 440 µM) | MIC (Escherichia coli; patient isolate E3): 64 µg/mL (≈ 440 µM) | MBC (Escherichia coli; patient isolate E4): 64 µg/mL (≈ 440 µM) | MIC (Escherichia coli; patient isolate E4): 32 µg/mL (≈ 220 µM) | MBC (Escherichia coli; patient isolate E5): 64 µg/mL (≈ 440 µM) | MIC (Escherichia coli; patient isolate E5): 64 µg/mL (≈ 440 µM) | MBC (Enterobacter spp.; [5]): 64 µg/mL (≈ 440 µM) | MIC (Enterobacter spp.; [5]): 32 µg/mL (≈ 220 µM) | MBC (Enterobacter spp.; Enterobacter, patient isolate En3, read-out: MBC): 32 µg/mL (≈ 220 µM) | MIC (Enterobacter spp.; Enterobacter, patient isolate En3, read-out: MIC): 32 µg/mL (≈ 220 µM) | MBC (Enterobacter spp.; Enterobacter, patient isolate En4, read-out: MBC): 128 µg/mL (≈ 879 µM) | MIC (Enterobacter spp.; Enterobacter, patient isolate En4, read-out: MIC): 64 µg/mL (≈ 440 µM) | MBC (Enterobacter spp.; Enterobacter, patient isolate En5, read-out: MBC): 64 µg/mL (≈ 440 µM) | MIC (Enterobacter spp.; Enterobacter, patient isolate En5, read-out: MIC): 64 µg/mL (≈ 440 µM)

O=C1OC2C(=C1Cl)N2Cc1ccccc1 (stereo not drawn) [Example 4, 4-chloro-6-benzyl-2-oxa-6-azabicyclo[3.1.0]hex-4-en-3-one]
MBC (Acinetobacter spp.; Acinetobacter, patient isolates, isolate code not given (one value per isolate), read-out: MBC): 8 µg/mL (≈ 36.1 µM) | MIC (Acinetobacter spp.; [3]): 4 µg/mL (≈ 18 µM) | MBC (Acinetobacter spp.; [2]): 16 µg/mL (≈ 72.2 µM) | MIC (Acinetobacter spp.; [2]): 8 µg/mL (≈ 36.1 µM) | MBC (S. aureus ATCC 25923): 8 µg/mL (≈ 36.1 µM) | MIC (S. aureus ATCC 25923): 4 µg/mL (≈ 18 µM) | MBC (P. aeruginosa ATCC 27853): 32 µg/mL (≈ 144 µM) | MIC (P. aeruginosa ATCC 27853): 16 µg/mL (≈ 72.2 µM) | broad spectrum antibacterial activity ([1]; summary of Table 1): good broad spectrum activity | MBC (E. coli ATCC 25922): 16 µg/mL (≈ 72.2 µM) | MIC (E. coli ATCC 25922): 8 µg/mL (≈ 36.1 µM) | MBC (Escherichia coli; [2]): 16 µg/mL (≈ 72.2 µM) | MIC (Escherichia coli; [2]): 16 µg/mL (≈ 72.2 µM) | MBC (Enterobacter spp.; [4]): 16 µg/mL (≈ 72.2 µM) | MIC (Enterobacter spp.; [4]): 8 µg/mL (≈ 36.1 µM) | MBC (Enterobacter spp.; [2]): 32 µg/mL (≈ 144 µM) | MIC (Enterobacter spp.; [2]): 16 µg/mL (≈ 72.2 µM)
